# From patent publication US20170037028A1 (BAYER PHARMA AKTIENGESELLSCHAFT, priority 2013, published 2017)
# pIC50: −log10 of the molar value.
# Molecular target: T1, GLUT1 (Homo sapiens, UniProt P11166)
# T1 sequence (P11166 1-492): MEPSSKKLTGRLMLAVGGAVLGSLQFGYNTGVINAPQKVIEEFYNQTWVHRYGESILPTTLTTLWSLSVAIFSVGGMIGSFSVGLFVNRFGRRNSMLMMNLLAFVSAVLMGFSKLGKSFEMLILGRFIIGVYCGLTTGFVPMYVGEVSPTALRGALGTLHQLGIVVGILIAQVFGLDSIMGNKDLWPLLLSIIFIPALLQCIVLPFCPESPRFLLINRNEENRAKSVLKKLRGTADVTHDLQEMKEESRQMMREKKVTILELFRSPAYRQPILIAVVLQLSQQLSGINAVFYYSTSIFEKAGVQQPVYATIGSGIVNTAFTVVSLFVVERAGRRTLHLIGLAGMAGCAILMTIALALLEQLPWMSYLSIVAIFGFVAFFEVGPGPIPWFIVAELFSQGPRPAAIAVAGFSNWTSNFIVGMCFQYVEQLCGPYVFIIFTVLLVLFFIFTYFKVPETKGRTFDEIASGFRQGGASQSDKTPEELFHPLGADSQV
# Experiment: Indirect measurement of GLUT1 activity by quantification of intracellular ATP levels (glucose induced ATP increase)
# Format: cell-based
# Parameters: endogenous in cells; host or cells: DLD1 or CHO-K1
# Conditions: read-out: IC50 regarding glucose induced ATP increase (GLUT1 inhibition)
# Method in brief: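 DLD1 or CHO-K1 cells were starved overnight in glucose-free medium with 1% FCS, then combined with an oxidative phosphorylation inhibitor. GLUT1 activity was read as glucose-induced ATP increase, GLUT2 as fructose-induced. Intracellular ATP was quantified by CellTiter-Glo luminescence.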
row,pIC50,Structure (SMILES)
1,7.30,"Cc1nn(Cc2ccc(C#N)cc2)c(C)c1NC(=O)c1cc(C(F)(F)F)nc2cc(F)c(F)cc12 [Example 169, N-[1-(4-cyanobenzyl)-3,5-dimethyl-1H-pyrazol-4-yl]-6,7-difluoro-2-(trifluoromethyl)quinoline-4-carboxamide]"
2,8.72,Cc1nn(Cc2ccc(OC(F)(F)F)cc2)c(C)c1NC(=O)c1cc(C(N)=O)nc2ccccc12 [Example 1460]
3,6.04,CCOC(=O)c1nn(Cc2ccc(F)cc2)c(C)c1NC(=O)c1cc(C(F)(F)F)nc2ccc(Br)cc12 [Example 1225]
4,7.22,Cc1nn(Cc2ccc(F)cc2)c(C)c1NC(=O)c1cc(C(F)(F)F)nc2ccc(N)cc12 [Example 1117]
5,5.78,Cc1nn(Cc2ccc(C(=O)NCCO)cn2)c(C)c1NC(=O)c1cc(C(N)=O)nc2ccc(F)cc12 [Example 1246]
6,7.35,Cc1nn(CC2COc3ccccc3O2)c(C)c1NC(=O)c1cc(C(N)=O)nc2ccccc12 (stereo not shown) [Example 1103]
7,7.25,CNC(=O)N1CCC(Cn2nc(C)c(NC(=O)c3cc(C(F)(F)F)nc4ccc(Br)cc34)c2C)CC1 [Example 1111]
8,8.16,COc1cccc(Cn2nc(C(F)(F)F)c(NC(=O)c3cc(C(N)=O)nc4ccccc34)c2C)c1 [Example 1448]
9,8.72,"Cc1c(NC(=O)c2cc(C(N)=O)nc3ccccc23)c(C(C)C)nn1Cc1ccc(C#N)cc1 [Example 322, N^4-[1-(4-cyanobenzyl)-3-isopropyl-5-methyl-1H-pyrazol-4-yl]quinoline-2,4-dicarboxamide]"
10,7.16,Cc1nn(Cc2ccc(C(N)=O)cc2)c(C)c1NC(=O)c1cc(C(N)=O)nc2cc(F)ccc12 [Example 1424]
11,9.30,"Cc1nn(Cc2ccccc2C#N)c(C)c1NC(=O)c1cc(C(C)C)nc2ccc(Br)cc12 [Example 118, 6-bromo-N-[1-(2-cyanobenzyl)-3,5-dimethyl-1H-pyrazol-4-yl]-2-(propan-2-yl)quinoline-4-carboxamide]"
12,7.82,Cc1nn(Cc2cccc(C#N)c2)c(C)c1NC(=O)c1cc(C(N)=O)nc2cccc(F)c12 [Example 1457]
13,6.71,"Cc1nn(Cc2ccc(CC(=O)NCc3ccccc3)cc2)c(C)c1NC(=O)c1cc(C(F)(F)F)nc2ccc(Br)cc12 [Example 154, N-(1-{4-[2-(benzylamino)-2-oxoethyl]benzyl}-3,5-dimethyl-1H-pyrazol-4-yl)-6-bromo-2-(trifluoromethyl)quinoline-4-carboxamide]"
14,6.69,Cc1nn(Cc2ccc(C(=O)NC(C)(C)C)cc2)c(C)c1NC(=O)c1cc(C(F)(F)F)nc2ccc(Br)cc12 [Example 1174]
15,8.57,"Cc1nn(Cc2cc(C(C)C)no2)c(C)c1NC(=O)c1cc(C(N)=O)nc2cc(F)c(Cl)cc12 [Example 416, 6-chloro-N^4-(3,5-dimethyl-1-{[3-(propan-2-yl)-1,2-oxazol-5-yl]methyl}-1H-pyrazol-4-yl)-7-fluoroquinoline-2,4-dicarboxamide]"
16,9.22,"Cc1nn(Cc2ccc(C#N)cc2)c(C)c1NC(=O)c1cc(C(N)=O)nc2cc(F)c(Cl)cc12 [Example 212, 6-chloro-N^4-[1-(4-cyanobenzyl)-3,5-dimethyl-1H-pyrazol-4-yl]-7-fluoroquinoline-2,4-dicarboxamide]"
17,5.29,Cc1ccc2nc(C)cc(C(=O)Nc3c(C)nn(Cc4cc(F)ccc4F)c3C)c2c1 [Example 1281]
18,8.03,"Cc1nn(Cc2ccc(C#N)cn2)c(C)c1NC(=O)c1cc(C(N)=O)nc2cc(F)ccc12 [Example 356, N^4-{1-[(5-cyanopyridin-2-yl)methyl]-3,5-dimethyl-1H-pyrazol-4-yl}-7-fluoroquinoline-2,4-dicarboxamide]"
19,6.79,"Cc1ccc2nc(C)cc(C(=O)Nc3c(C(F)(F)F)nn(Cc4ccc(C#N)cc4)c3C)c2c1 [Example 188, N-[1-(4-cyanobenzyl)-5-methyl-3-(trifluoromethyl)-1H-pyrazol-4-yl]-2,6-dimethylquinoline-4-carboxamide]"
20,5.86,Cc1nn(Cc2cc(F)ccc2F)c(C)c1NC(=O)c1cc(C(F)(F)F)nc2ccc(Br)cc12 [Example 1238]
21,8.55,COc1ccc(Cn2nc(C)c(NC(=O)c3cc(C(F)(F)F)nc4ccc(Br)cc34)c2C)cn1 [Example 1025]
22,7.16,"Cc1nn(Cc2ccc(F)c(F)c2)c(C)c1NC(=O)c1cc(C(F)(F)F)nc2ccc(F)cc12 [Example 174, N-[1-(3,4-difluorobenzyl)-3,5-dimethyl-1H-pyrazol-4-yl]-6-fluoro-2-(trifluoromethyl)quinoline-4-carboxamide]"
23,8.05,"CCc1cc(Cn2nc(C(F)(F)F)c(NC(=O)c3cc(C(N)=O)nc4cc(F)c(Cl)cc34)c2C)on1 [Example 410, 6-chloro-N^4-{1-[(3-ethyl-1,2-oxazol-5-yl)methyl]-5-methyl-3-(trifluoromethyl)-1H-pyrazol-4-yl}-7-fluoroquinoline-2,4-dicarboxamide]"

row,pIC50,Structure (SMILES)
1,8.28,Cc1nn(Cc2ccc(S(C)(=O)=O)cc2)c(C)c1NC(=O)c1cc(C(N)=O)nc2cc(F)c(Cl)cc12 [Example 1485]
2,6.75,"Cc1nn(Cc2cccc(F)c2)c(C)c1NC(=O)c1cc(C(F)(F)F)nc2ccc(Br)cc12 [Example 72, 6-bromo-N-[1-(3-fluorobenzyl)-3,5-dimethyl-1H-pyrazol-4-yl]-2-(trifluoromethyl)quinoline-4-carboxamide]"
3,8.64,COc1cccc(Cn2nc(C(F)(F)F)c(NC(=O)c3cc(C(N)=O)nc4ccc(Br)cc34)c2C)c1 [Example 1450]
4,6.66,Cc1c(NC(=O)c2cc(C(F)(F)F)nc3ccc(Br)cc23)c(C(F)(F)F)nn1Cc1ccc(C(=O)NCCN(C)C)cn1 [Example 1177]
5,6.92,Cc1c(NC(=O)c2cc(C(N)=O)nc3cc(F)ccc23)c(C(F)(F)F)nn1Cc1ccc(C(C)C)cc1 [Example 1406]
6,8.96,Cc1nn(Cc2ccc(F)cc2C#N)c(C)c1NC(=O)c1cc(C(N)=O)nc2cc(F)c(Cl)cc12 [Example 1663]
7,6.95,Cc1nn(Cc2ccc(C(=O)NCc3cncn3C)cc2)c(C)c1NC(=O)c1cc(C(F)(F)F)nc2ccc(Br)cc12 [Example 1142]
8,6.51,"COc1c(C)nc2ccccc2c1C(=O)Nc1c(C)nn(Cc2ccc(F)cc2)c1C [Example 95, N-[1-(4-fluorobenzyl)-3,5-dimethyl-1H-pyrazol-4-yl]-3-methoxy-2-methylquinoline-4-carboxamide]"
9,6.37,COc1cc(C(=O)Nc2c(C)nn(CCc3cccc(F)c3)c2C)c2ccccc2n1 [Example 1202]
10,8.59,"Cc1nn(Cc2c(F)cc(C#N)cc2F)c(C)c1NC(=O)c1cc(C(N)=O)nc2ccc(Br)cc12 [Example 394, 6-bromo-N^4-[1-(4-cyano-2,6-difluorobenzyl)-3,5-dimethyl-1H-pyrazol-4-yl]quinoline-2,4-dicarboxamide]"
11,6.90,Cc1nn(C(C)c2ccc(F)cc2)c(C)c1NC(=O)c1cc(C(N)=O)nc2ccccc12 (racemic) [Example 1364]
12,8.15,"Cc1nn(Cc2ncccc2C#N)c(C)c1NC(=O)c1cc(C(N)=O)nc2cc(F)c(F)cc12 [Example 222, N^4-{1-[(3-cyanopyridin-2-yl)methyl]-3,5-dimethyl-1H-pyrazol-4-yl}-6,7-difluoroquinoline-2,4-dicarboxamide]"
13,6.17,"Cc1nn(Cc2ccc(F)cc2)c(C)c1NC(=O)c1cc(C2CC2)nc2c(C(F)(F)F)cccc12 [Example 108, 2-cyclopropyl-N-[1-(4-fluorobenzyl)-3,5-dimethyl-1H-pyrazol-4-yl]-8-(trifluoromethyl)quinoline-4-carboxamide]"
14,8.29,Cc1c(NC(=O)c2cc(C(N)=O)nc3ccccc23)c(C(F)(F)F)nn1Cc1ccc(OC(F)(F)F)cc1 [Example 1465]
15,8.72,C=CCNC(=O)c1ccc(Cn2nc(C)c(NC(=O)c3cc(C(F)(F)F)nc4ccc(Br)cc34)c2C)cc1 [Example 1018]
16,8.89,Cc1nn(Cc2ccc(F)cc2C#N)c(C)c1NC(=O)c1cc(C(N)=O)nc2cc(F)ccc12 [Example 1660]
17,8.34,"Cc1nn(Cc2ccc(C#N)cc2)c(C)c1NC(=O)c1cc(C(N)=O)nc2ccc(F)cc12 [Example 228, N^4-[1-(4-cyanobenzyl)-3,5-dimethyl-1H-pyrazol-4-yl]-6-fluoroquinoline-2,4-dicarboxamide]"
18,7.38,Cc1nn(Cc2ccc(C(=O)N3CCC(CO)CC3)cc2)c(C)c1NC(=O)c1cc(C(F)(F)F)nc2ccc(Br)cc12 [Example 1099]
19,7.64,Cc1nn(Cc2ccc(C(=O)NCCCCCO)cc2)c(C)c1NC(=O)c1cc(C(F)(F)F)nc2ccc(Br)cc12 [Example 1077]
20,7.41,Cc1ccc(C#N)c(Cn2nc(C(F)(F)F)c(NC(=O)c3cc(C(N)=O)nc4cc(F)ccc34)c2C)c1 [Example 1700]
21,7.72,COc1cc(C(=O)Nc2c(C(F)(F)F)nn(Cc3ccc(C#N)cc3)c2C)c2cc(F)ccc2n1 [Example 1376]
22,7.33,Cc1c(NC(=O)c2cc(C(N)=O)nc3ccccc23)c(C(F)(F)F)nn1Cc1ccc(C(C)(C)C#N)cc1 [Example 1667]
23,8.64,Cc1nn(Cc2ccc(C(=O)NCc3ccncc3)cc2)c(C)c1NC(=O)c1cc(C(F)(F)F)nc2ccc(Br)cc12 [Example 1021]
